One test concerns the target T1, DRB5*0101 (Homo sapiens, UniProt P01903+Q30154).
T1 construct: Epstein-Barr virus (EBV) transformed homozygous cell lines were used as sources of human HLA Class II molecules; endogenous in cells; host or cells: GM3107 (EBV-transformed homozygous B cell line)
In words: Class II peptide-binding assay DRB5*0101 (DR2w2a).

For a further test, the target named is T2, DRB4*0101 (Homo sapiens, UniProt P01903+P13762, G164S).
T2 construct: expressed in transfected cells; host or cells: transfected fibroblasts L257.6
Description: Class II peptide-binding assay DRB4*0101 (DRw53).

Another test has as its target T3, DRB1*0301 (Homo sapiens, UniProt P01903+P01911, A100K/A102G/A103R/A169T/F55Y/I96L/K41T/L162R/M171V/P40S/Q125H/Q178H/Q39Y/R42S/S66N/T106N/T262R/W38E/Y61H).
T3 construct: Epstein-Barr virus (EBV) transformed homozygous cell lines were used as sources of human HLA Class II molecules; endogenous in cells; host or cells: MAT (EBV-transformed homozygous B cell line)
In words: Class II peptide-binding assay DRB1*0301 (DR3).

The next test has as its target T4, DRB1*1101 (Homo sapiens, UniProt P01903+P01911, A100R/A169T/A87E/I96F/K41T/L162R/M171V/P40S/Q125H/Q178H/Q39Y/Q99D/R42S/S66Y/T262R/V115G/W38E).
T4 construct: Epstein-Barr virus (EBV) transformed homozygous cell lines were used as sources of human HLA Class II molecules; endogenous in cells; host or cells: SWEIG (EBV-transformed homozygous B cell line)
In words: Class II peptide-binding assay DRB1*1101 (DR5w11).

The next test deals with T5, DRB3*0101 (Homo sapiens, UniProt P01903+P79483).
T5 construct: expressed in transfected cells; host or cells: transfected fibroblasts TR81.19
In words: Class II peptide-binding assay DRB3*0101 (DR52a).

Another test has as its target T6, DRB1*0701 (Homo sapiens, UniProt P01903+P01911, A100R/A102G/A103Q/D57E/D86V/E43K/F76Y/K127E/L162R/M171V/P40G/Q125H/Q99D/R33Q/R42Y/R54Q/S133A/S66F/T210M/V115G/Y107V/Y59L/Y89S).
T6 construct: Epstein-Barr virus (EBV) transformed homozygous cell lines were used as sources of human HLA Class II molecules; endogenous in cells; host or cells: PITOUT (EBV-transformed homozygous B cell line)
Description: Class II peptide-binding assay DRB1*0701 (DR7). To be noted: known HLA-DR and DQ restricted epitopes, Table 6.

In a further test the target is T7, DRB1*0401 (Homo sapiens, UniProt P01903+P01911, A100K/A169T/F76Y/I96L/K127E/L162R/M171V/N62H/P40V/Q125Y/R42H/S133A/S149N/S66Y/V115G/V209L/W38E).
T7 construct: Epstein-Barr virus (EBV) transformed homozygous cell lines were used as sources of human HLA Class II molecules; endogenous in cells; host or cells: PREISS (EBV-transformed homozygous B cell line)
Description: Class II peptide-binding assay DRB1*0401 (DR4w4).

The target of the next test is T8, DRB1*0405 (Homo sapiens, UniProt P01903+P01911, A100R/A169T/D86S/F76Y/I96L/K127E/L162R/M171V/N62H/P40V/Q125Y/R42H/S133A/S149N/S66Y/V115G/V209L/W38E).
T8 construct: Epstein-Barr virus (EBV) transformed homozygous cell lines were used as sources of human HLA Class II molecules; endogenous in cells; host or cells: KT3 (EBV-transformed homozygous B cell line)
In words: Class II peptide-binding assay DRB1*0405 (DR4w15).

A further test deals with T9, DRB1*1302 (Homo sapiens, UniProt P01903+P01911, A100E/A169T/K41T/L162R/M171V/P40S/Q125H/Q178H/Q39Y/Q99D/R42S/S66N/T262R/V115G/W38E/Y61H).
T9 construct: Epstein-Barr virus (EBV) transformed homozygous cell lines were used as sources of human HLA Class II molecules; endogenous in cells; host or cells: HO301 / H0301 (EBV-transformed homozygous B cell line)
Description: Class II peptide-binding assay DRB1*1302 (DR6w19).

A further test deals with T10, DRB1*0101 (Homo sapiens, UniProt P01903+P01911, A100R/D57E/F55L/F60I/F76Y/I96L/L162R/M171V/P40L/Q125E/R42F/V115G/Y59C).
T10 construct: Epstein-Barr virus (EBV) transformed homozygous cell lines were used as sources of human HLA Class II molecules; endogenous in cells; host or cells: LG2 (EBV-transformed homozygous B cell line)
In words: Class II peptide-binding assay DRB1*0101 (DR1).

The next test deals with T11, DRB1*0404 (Homo sapiens, UniProt P01903+P01911, A100R/A169T/F76Y/I96L/K127E/L162R/M171V/N62H/P40V/Q125Y/R42H/S133A/S149N/S66Y/V209L/W38E).
T11 construct: Epstein-Barr virus (EBV) transformed homozygous cell lines were used as sources of human HLA Class II molecules; endogenous in cells; host or cells: BIN40 (EBV-transformed homozygous B cell line)
Description: Class II peptide-binding assay DRB1*0404 (DR4w14).

For another test, the target named is T12, DRB1*0802 (Homo sapiens, UniProt P01903+P01911, A100R/A103L/A169T/F76Y/H45Y/I96F/K41T/L162R/M171V/P40S/Q125H/Q178H/Q39Y/Q99D/R218S/R42G/S66Y/V115G/W38E).
T12 construct: Epstein-Barr virus (EBV) transformed homozygous cell lines were used as sources of human HLA Class II molecules; endogenous in cells; host or cells: OLL (EBV-transformed homozygous B cell line)
In words: Class II peptide-binding assay DRB1*0802 (DR8w2).

Setting [1] is: known HLA-DR and DQ restricted epitopes, Table 6.
Setting [2] is: inhibition of radiolabeled probe binding, — read as no appreciable binding.

Read-outs that look alike come from different tables or passages of the source. Ends that are not written are not given here.

T9 sequence (P01903 26-254, other chains not shown): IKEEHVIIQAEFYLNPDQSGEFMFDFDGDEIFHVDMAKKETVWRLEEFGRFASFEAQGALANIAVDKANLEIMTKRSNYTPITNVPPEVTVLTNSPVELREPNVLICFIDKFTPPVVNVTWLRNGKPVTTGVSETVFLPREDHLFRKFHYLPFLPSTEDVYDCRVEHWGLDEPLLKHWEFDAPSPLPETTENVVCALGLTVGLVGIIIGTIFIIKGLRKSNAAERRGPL
T3 sequence (P01903 26-254, other chains not shown): as above
T4 sequence (P01903 26-254, other chains not shown): as above

As usually defined, the IC50 is the concentration that inhibits the measured activity by half. Read a low IC50 as higher potency. Take `CC[C@H](C)[C@H](NC(=O)[C@H](Cc1ccc(O)cc1)NC(=O)[C@@H]1CCCN1C(=O)[C@H](CC(=O)O)NC(=O)[C@H](CCC(=O)O)NC(=O)[C@H](CC(C)C)NC(=O)[C@@H](NC(=O)[C@H](C)N)C(C)C)C(=O)N[C@@H](CC(C)C)C(=O)N[C@@H](CC(C)C)C(=O)N[C@H](C(=O)N[C@@H](CO)C(=O)N[C@@H](CO)C(=O)N[C@@H](CCCCN)C(=O)N[C@H](C(=O)N[C@@H](CO)C(=O)O)C(C)C)C(C)C`: the IC50 at DRB5*0101 was 2.5 µM; on DRB4*0101, 4.21 µM; on DRB1*0301 (setting [1]), over 20 µM; at DRB1*1101 (setting [1]), 6.67 µM; at DRB3*0101, 5 µM; on DRB1*0701, 0.073 µM. This compound yielded an IC50 at DRB1*0401 (setting [1]) of 0.182 µM.
With `CC(C)C[C@H](NC(=O)[C@H](Cc1ccccc1)NC(=O)[C@H](CC(N)=O)NC(=O)[C@H](CO)NC(=O)[C@H](Cc1ccc(O)cc1)NC(=O)[C@@H](NC(=O)[C@H](CCCNC(=N)N)NC(=O)[C@H](Cc1ccccc1)NC(=O)[C@H](C)NC(=O)[C@H](CCCCN)NC(=O)[C@H](CCCNC(=N)N)NC(=O)[C@H](Cc1ccccc1)NC(=O)[C@@H](NC(=O)[C@@H](N)CC(=O)O)[C@@H](C)O)C(C)C)C(=O)N[C@@H](CCCNC(=N)N)C(=O)O`, the IC50 was determined as 0.08 µM at DRB5*0101; 0.048 µM at DRB1*0405; 0.0053 µM at DRB1*1101; 0.123 µM on DRB1*1302; 0.025 µM on DRB1*0401; 0.068 µM on DRB1*0101.
For the compound `CC(C)C[C@H](NC(=O)[C@H](Cc1ccccc1)NC(=O)[C@H](CC(N)=O)NC(=O)[C@H](CO)NC(=O)[C@H](Cc1ccc(O)cc1)NC(=O)[C@@H](NC(=O)[C@H](CCCNC(=N)N)NC(=O)[C@H](Cc1ccccc1)NC(=O)CNC(=O)[C@H](CCCCN)NC(=O)[C@H](CCCNC(=N)N)NC(=O)[C@H](Cc1ccccc1)NC(=O)[C@@H](NC(=O)[C@@H](N)CC(=O)O)[C@@H](C)O)C(C)C)C(=O)N[C@@H](CCCNC(=N)N)C(=O)O`, the IC50 on DRB1*0404 was found to be 0.151 µM; at DRB1*1101, 0.01 µM.
With `CC(C)C[C@H](NC(=O)[C@H](CC(=O)O)NC(=O)[C@H](CC(N)=O)NC(=O)[C@H](CO)NC(=O)[C@H](Cc1ccc(O)cc1)NC(=O)[C@@H](NC(=O)[C@H](CCCNC(=N)N)NC(=O)[C@H](Cc1ccccc1)NC(=O)[C@H](CC(C)C)NC(=O)[C@H](CCCCN)NC(=O)[C@H](CCCNC(=N)N)NC(=O)[C@H](Cc1ccccc1)NC(=O)[C@@H](NC(=O)[C@@H](N)CC(=O)O)[C@@H](C)O)C(C)C)C(=O)N[C@@H](CCCNC(=N)N)C(=O)O`, the IC50 was 1.39 µM at DRB4*0101; 11.5 µM at DRB1*0301; 0.0036 µM at DRB1*1101; 0.075 µM at DRB1*0802; 0.024 µM at DRB1*0401; 0.085 µM at DRB1*0101.
Take `CC[C@H](C)[C@H](NC(=O)[C@H](CCCNC(=N)N)NC(=O)[C@H](Cc1c[nH]c2ccccc12)NC(=O)[C@@H](NC(=O)[C@H](C)NC(=O)CNC(=O)[C@H](Cc1c[nH]c2ccccc12)NC(=O)[C@H](CO)NC(=O)[C@@H](N)CCC(=O)O)C(C)C)C(=O)N[C@@H](CC(=O)O)C(=O)N[C@H](C(=O)N1CCC[C@H]1C(=O)N[C@@H](CC(=O)O)C(=O)N[C@@H](CCCCN)C(=O)N[C@@H](CC(C)C)C(=O)N[C@H](C(=O)NCC(=O)N1CCC[C@H]1C(=O)N[C@@H](Cc1ccccc1)C(=O)N[C@H](C(=O)O)[C@@H](C)O)[C@@H](C)O)[C@@H](C)O`: the IC50 on DRB1*0405 (setting [1]) was 1.73 µM; on DRB4*0101 (setting [1]), 1.12 µM; at DRB1*0301 (setting [1]), 3.18 µM; on DRB1*0701, over 20 µM; on DRB1*0401 (setting [1]), over 20 µM; at DRB1*0101 (setting [1]), 2.5 µM.
Take `CC(C)C[C@H](NC(=O)[C@@H](NC(=O)[C@H](CC(C)C)NC(=O)[C@@H](NC(=O)[C@H](CCCCN)NC(=O)[C@H](Cc1ccc(O)cc1)NC(=O)CN)C(C)C)C(C)C)C(=O)N[C@@H](CC(N)=O)C(=O)N1CCC[C@H]1C(=O)N[C@@H](CO)C(=O)N[C@H](C(=O)N[C@@H](C)C(=O)N[C@@H](C)C(=O)N[C@H](C(=O)O)[C@@H](C)O)C(C)C`: the IC50 at DRB3*0101 was over 20 µM.
Turning to `CC[C@H](C)[C@H](NC(=O)[C@H](CC(N)=O)NC(=O)[C@@H](N)CCC(N)=O)C(=O)N[C@@H](CC(C)C)C(=O)N[C@@H](CC(C)C)C(=O)N[C@@H](CO)C(=O)N[C@@H](CC(N)=O)C(=O)N[C@@H](C)C(=O)N1CCC[C@H]1C(=O)N[C@@H](CC(C)C)C(=O)NCC(=O)N1CCC[C@H]1C(=O)N[C@@H](CCC(N)=O)C(=O)N[C@@H](Cc1ccccc1)C(=O)N1CCC[C@H]1C(=O)O`, the IC50 on DRB5*0101 (setting [1]) is over 20 µM; on DRB1*0404 (setting [1]) it was 0.143 µM; on DRB3*0101 (setting [1]), over 20 µM; at DRB1*1302 (setting [1]), 0.0053 µM; on DRB1*0802 (setting [1]), 13.4 µM; on DRB1*0701 it was 0.296 µM.
For the compound FNNFTVSFWLRVPKVSASHLEQY, the IC50 at DRB5*0101 is 2.86 µM; at DRB4*0101, 1.68 µM; on DRB1*0301 (setting [1]) it was over 20 µM; at DRB1*0404 (setting [1]), 4.54 µM; at DRB1*1101 (setting [1]) it was 0.0083 µM; at DRB3*0101 it was 2.82 µM. Moreover, the IC50 on DRB1*1302 (setting [1]) was found to be 6.37 µM; on DRB1*0802, 0.581 µM; at DRB1*0701, 0.057 µM; on DRB1*0401 (setting [1]) it was 0.093 µM; on DRB1*0101 it was 0.417 µM.
For LLKDLEEGIQTLMGR, the IC50 on DRB4*0101 (setting [2]) came to 3.71 µM.
In the case of LLYCFRKDMDKVETF, at DRB3*0101 (setting [2]), the IC50 is 6.94 µM.
LWQLNGRLEYCLKDR returned an IC50 on DRB3*0101 (IFNb 15-mer peptides, Table 5D) of 6.78 µM.
For the compound NHLKTVLEEKLEKED [NHLKTVLEEKLEKED], the IC50 at DRB5*0101 (IFNb 15-mer peptides, Table 5D) stood at 6.76 µM; on DRB4*0101 (IFNb 15-mer peptides, Table 5D), 1.39 µM.
On to TSLCFSESIPTPSNR, for which, on DRB3*0101 (setting [2]), the IC50 worked out at 22.6 µM.
For VLEEKLEKEDFTRGK, the IC50 on DRB5*0101 (IFNb 15-mer peptides, Table 5D) came to 4.61 µM; at DRB4*0101 (IFNb 15-mer peptides, Table 5D), 19.1 µM; at DRB3*0101 (IFNb 15-mer peptides, Table 5D), 1.39 µM.
With YKTIAYDEEARR, the IC50 at DRB5*0101, at DRB4*0101 and at DRB3*0101 was over 20 µM throughout.

The values are drawn from patent publication US20070184519A1, “Peptides, polypeptides, and proteins of reduced immunogenicity and methods for their production” (priority 2003, published 2007).
